Data on three compounds can be found in patent publication US8852552B2, “Agents and methods for visualizing analytes” (priority 2010, dated 2014).

The test system of experiment [1] is Peptide (NH2-)FLNCCPGCCMEP(-COOH) [SEQ ID No 6]. As to the kind of experiment: Complex formation with tetracysteine-tagged peptide in MOPS/MES/EDT buffer, LC-MS analysis. The format is binding. The settings on record: probe in DMSO + 1 mM peptide, stirred 10-30 minutes. The procedure: Experiments were performed according to Nature Protocols Vol.3 No.9, 1527-1534, (Adams & Tsien) with minor modifications.
Materials: Peptide (NH2—)[…](—COOH) [SEQ ID No 6], M.w: 1316.63, supplied by INNOVAGEN, Sweden, MOPS sodium salt FW: 231.2 CAS [71119-22-7], MES sodium salt FW: 164.16 CAS [19767-45-4], and EDT FW:94.2 CAS [540-63-6] were used as received.
HPLC analyses employed a Waters Alliance 2795 LC system, equipped with an XBridge C18 3.0×50 mm 3.5 μm column. The mass detector had polarity ES+/polarity ES-. Solvents, A: 0.1 M NH3 in milliQ water, B: MeOH. Gradient, A: 95% 0.1 min, 0.1-4 min A:95% to B:100%, 4.0-4.6 min B:100%.
The radiodetector employed was a Raytest Star (solid cell). Chromatography with radiodetection was performed using a Kromasil C18, 5μ 250×10 mm column, and an isocratic eluent composed of 35% acetonitrile in 50 mM ammonium acetate, at a flow rate of 2.0 mL/min.
To this solution was added 200 μL of 1 mM PSMXB-4 (in DMSO). […] The reaction mixture was stirred for 30 minutes. […] The mass peaks corresponded to dianionic and trianionic species.
To this solution was added 200 μL of 1 mM PSMXB-6 (in DMSO). […] The reaction mixture was stirred for 30 minutes. […] The mass peak corresponded to the dianionic species.
The reaction mixture is stirred for 10 minutes. […] The mass peak corresponded to the dianionic species. […] HPLC purification allowed isolation of the pure, tritiated complex.

Experiment [2] deals with unrelated peptide with N-terminal biotin. Nature of the experiment: Surface plasmon resonance, reference channel with unrelated biotinylated control peptide. The format is binding. The settings on record: 100 μM injected. The source says: The biotinylated peptide was immobilized on a sensor chip (Sensor Chip SA BiaCore) by non-covalent capture to streptavidin according to manufacturer instructions. An unrelated peptide with N-terminal biotin was coupled to a reference channel. […] At the end of the injection phase, the sensor surface was washed (Wash arrow FIG. 1A) with […] pH7.4, 0.15 M NaCl.
A general note: In SPR one partner is held on a chip, and binding of the other changes the refractive index at the surface.

With “2,5-di-(1,3,2-Dithiarsolan-2yl)-9(4-fluorophenyl)-6-[^3H3]methoxy-3-fluorone [6-[^3H3CO]-PSMXB-6]”, the “complex formation with peptide by LC-MS” value in experiment [1] is “complete conversion into the complex”.
On to `COc1ccc2c(-c3ccc(F)cc3)c3cc([As]4SCCS4)c(=O)cc-3oc2c1[As]1SCCS1` [PSMXB-6, 2,5-di-(1,3,2-Dithiarsolan-2yl)-9(4-fluorophenyl)-6-methoxy-3-fluorone], for which, in experiment [1], the “complex formation with peptide by LC-MS” value was “mass spectrum consistent with the complex”. The “interaction with unrelated control peptide” value in experiment [2] is “No interaction was detected”.
Consider `O=c1ccc2c(-c3ccc(F)cc3)c3ccc(O)c([As]4SCCS4)c3oc-2c1[As]1SCCS1` [PSMXB-4, 2,5-di-(1,3,2-dithiarsolan-2-yl)-9-(4-fluorophenyl)-6-hydroxy-3-fluorone], for which the “complex formation with peptide by LC-MS” value in experiment [1] is reported as “mass spectrum consistent with the complex”.
